The values below come from ChEMBL document CHEMBL1201862, “PubChem BioAssay data set” (2004).

Among the test systems are A498; ACHN; COLO 205; DU-145; HCT-15; HOP-62; Hs-578T; KM12; M14; MDA-MB-231; MDA-N; NCI-H226; NCI-H460; OVCAR-5; SF-268; T47D; TK-10; UACC-62; CCRF-CEM; K562.
Assay in all cases: DTP human tumour cell line panel, 48 h

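48-hour exposure; five concentrations; linearly interpolated endpoints. Here, GI50 denotes the concentration required for 50% inhibition of growth.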 Activity calls are given as the source filed them. Cut-off read from the data, not from the text of the source: active = GI50 up to about 1.1 µM and inactive = higher.

Consider `COC(=O)c1cc(-c2ccc3ccccc3c2)nc(O)c1C#N`, for which the GI50 in the experiment with A498 was > 100 µM (inactive); with ACHN it was > 100 µM (inactive); with COLO 205 it was > 100 µM (inactive); with DU-145, > 100 µM (inactive); in the experiment with HCT-15 it was above 100 µM; in the experiment with HOP-62, > 100 µM (inactive). For the same compound, the GI50 in the experiment with Hs-578T, in the experiment with KM12, in the experiment on M14, in the experiment with MDA-MB-231, in the experiment on MDA-N and in the experiment on NCI-H226 was > 100 µM (inactive) each time. Further, the GI50 in the experiment with NCI-H460, in the experiment on OVCAR-5, with SF-268, with T47D, in the experiment on TK-10 and with UACC-62 was > 100 µM (inactive) each time.
`Nc1nc(N)c2ncn(Cc3ccccc3)c2n1`: the GI50 in the experiment on A498 was > 100 µM (inactive); in the experiment on ACHN, > 100 µM (inactive); in the experiment with CCRF-CEM, > 100 µM (inactive); with COLO 205, > 100 µM (inactive); in the experiment on DU-145, > 100 µM (inactive); in the experiment on HCT-15 it was above 100 µM. The GI50 with HOP-62, in the experiment on Hs-578T, in the experiment with KM12, in the experiment on M14, with MDA-MB-231 and in the experiment with MDA-N was > 100 µM (inactive) in each case. Also, the GI50 with NCI-H226, in the experiment on OVCAR-5, in the experiment with SF-268, in the experiment on T47D, in the experiment on TK-10 and in the experiment with UACC-62 was > 100 µM (inactive) throughout.
With `CC(C)(C)c1cc2c(O)c(c1)C(c1ccccc1)c1cc(C(C)(C)C)cc(c1O)Cc1cc(C(C)(C)C)cc(c1O)C(c1ccccc1)c1cc(C(C)(C)C)cc(c1O)C2` (stereo not drawn), the GI50 is > 100 µM (inactive) with A498; > 100 µM (inactive) in the experiment on ACHN; 44.9 µM (inactive) in the experiment on CCRF-CEM; > 100 µM (inactive) in the experiment on COLO 205; > 100 µM (inactive) with DU-145; above 100 µM in the experiment on HCT-15. The GI50 with HOP-62, with Hs-578T, in the experiment on K562, in the experiment with KM12, in the experiment with M14 and in the experiment on MDA-MB-231 was > 100 µM (inactive) throughout. Besides, the GI50 in the experiment with MDA-N, with NCI-H460, with OVCAR-5, in the experiment with SF-268, in the experiment on T47D and in the experiment with TK-10 was > 100 µM (inactive) in each case. Further, the GI50 in the experiment with UACC-62 is > 100 µM (inactive).
On to `ClC(Cl)=C1C(=C(Cl)Cl)C(Cl)(Cl)C1(Cl)Cl`, for which the GI50 is 11.6 µM (inactive) in the experiment on A498; 2.48 µM (inactive) in the experiment with ACHN; 0.101 µM (active) with CCRF-CEM; 2.92 µM (inactive) with COLO 205; 10.7 µM (inactive) with DU-145; 1.14 µM with HCT-15. The GI50 in the experiment with HOP-62 was 8.18 µM (inactive); with Hs-578T it was 2.36 µM (inactive); in the experiment with K562, 0.443 µM (active); in the experiment on KM12, 4.9 µM (inactive); with M14 it was 1.06 µM (active); in the experiment with MDA-MB-231, 2.4 µM (inactive). Moreover, the GI50 with MDA-N was 1.37 µM (inactive); with NCI-H460, 3.93 µM (inactive); in the experiment with OVCAR-5, 2.64 µM (inactive); with SF-268, 2.21 µM (inactive); with T47D, 4.92 µM (inactive); in the experiment on TK-10, 3.52 µM (inactive). In the experiment on UACC-62, the GI50 is 1.95 µM (inactive).
Turning to `CC(C)Oc1c(C2(c3ccccc3)SCCCS2)c(=O)c1=O`, the GI50 was > 100 µM (inactive) in the experiment with A498; > 100 µM (inactive) in the experiment on ACHN; 45.6 µM (inactive) with CCRF-CEM; > 100 µM (inactive) with COLO 205; > 100 µM (inactive) with DU-145; above 100 µM with HCT-15. Moreover, the GI50 in the experiment with HOP-62 was > 100 µM (inactive); in the experiment on Hs-578T, 84.7 µM (inactive); in the experiment on KM12 it was 50.2 µM (inactive); with M14, > 100 µM (inactive); with MDA-MB-231, > 100 µM (inactive); in the experiment with MDA-N, > 100 µM (inactive). In addition, the GI50 with NCI-H226, in the experiment on NCI-H460, in the experiment on OVCAR-5, in the experiment with SF-268, in the experiment on T47D and in the experiment with TK-10 was > 100 µM (inactive) each time. For the same compound, the GI50 in the experiment with UACC-62 was > 100 µM (inactive).
`CC(C)(C)OC(=O)N1[C@@H]2Cc3ccc(N)cc3[C@@]1(C)c1ccccc12`: the GI50 was 30.5 µM (inactive) in the experiment with A498; 36.8 µM (inactive) in the experiment on ACHN; 25.8 µM (inactive) in the experiment on CCRF-CEM; 30.3 µM (inactive) in the experiment on DU-145; 11.1 µM in the experiment on HCT-15; 35 µM (inactive) in the experiment on HOP-62. Moreover, the GI50 in the experiment on Hs-578T was 36.6 µM (inactive); in the experiment on K562 it was 24.8 µM (inactive); with KM12, 33 µM (inactive); in the experiment with M14 it was 24 µM (inactive); in the experiment on MDA-MB-231, 27.7 µM (inactive); in the experiment with MDA-N, 21.2 µM (inactive). The GI50 is 21.2 µM (inactive) with NCI-H460; 42.1 µM (inactive) with OVCAR-5; 37.3 µM (inactive) in the experiment with SF-268; 17.7 µM (inactive) in the experiment on T47D; 35.5 µM (inactive) with TK-10; 20.6 µM (inactive) in the experiment on UACC-62.
For `CCOC(=O)C(NC(=O)c1ccccc1)(Nc1ccc(S(=O)(=O)Nc2ccc(OC)nn2)cc1)C(F)(F)F` (stereo not drawn), the GI50 was > 100 µM (inactive) in the experiment with ACHN; > 100 µM (inactive) with CCRF-CEM; > 100 µM (inactive) with COLO 205; > 100 µM (inactive) in the experiment with DU-145; above 100 µM in the experiment on HCT-15; > 100 µM (inactive) in the experiment on HOP-62. For the same compound, the GI50 with Hs-578T, in the experiment on K562, in the experiment on KM12, with M14, in the experiment with MDA-MB-231 and in the experiment on MDA-N was > 100 µM (inactive) each time. Also, the GI50 in the experiment with NCI-H226, with NCI-H460, in the experiment on OVCAR-5, in the experiment with SF-268, in the experiment with T47D and in the experiment on TK-10 was > 100 µM (inactive) in each case. Also, the GI50 with UACC-62 was > 100 µM (inactive).
On to `CN(C)CCNc1ncnc2nc(-c3ccccc3)c(-c3ccccc3)nc12`, for which the GI50 with A498, in the experiment with CCRF-CEM, with COLO 205, with DU-145, with HOP-62 and with Hs-578T was > 100 µM (inactive) in each case. In addition, the GI50 in the experiment with KM12, in the experiment on M14, in the experiment on MDA-MB-231, with MDA-N, with NCI-H226 and in the experiment with OVCAR-5 was > 100 µM (inactive) each time. The GI50 in the experiment on SF-268, in the experiment with T47D, in the experiment on TK-10 and with UACC-62 was > 100 µM (inactive) throughout.
As for `COc1ccc(/N=N/c2c(C)c(C#N)c(=S)n(C3OC(CO)C(O)C(O)C3O)c2-c2ccccc2)cc1` (stereo not drawn), the GI50 was 20.9 µM (inactive) with A498; 26 µM (inactive) in the experiment on ACHN; 20 µM (inactive) with CCRF-CEM; 47.5 µM (inactive) with COLO 205; 32.1 µM (inactive) in the experiment on DU-145; 34 µM in the experiment on HCT-15. Besides, the GI50 in the experiment on HOP-62 is 37.9 µM (inactive); in the experiment with Hs-578T, 21.5 µM (inactive); with K562, 19.3 µM (inactive); with KM12, 43.5 µM (inactive); in the experiment on M14, 24.9 µM (inactive); in the experiment on MDA-MB-231, 51.1 µM (inactive). Also, the GI50 was 37.4 µM (inactive) in the experiment with MDA-N; 31.3 µM (inactive) in the experiment on NCI-H460; 36.9 µM (inactive) in the experiment with OVCAR-5; 44.9 µM (inactive) in the experiment with SF-268; 27.1 µM (inactive) with T47D; 39.5 µM (inactive) with TK-10. Also, the GI50 with UACC-62 was 18.8 µM (inactive).
Regarding `COC1=C(OC)C(=O)C(Cc2c(C)nc3sccn23)=C(C)C1=O`, the GI50 in the experiment on A498 was 14.9 µM (inactive); in the experiment on ACHN, 14.9 µM (inactive); in the experiment on CCRF-CEM it was 3.56 µM (inactive); in the experiment on COLO 205, 12.6 µM (inactive); in the experiment with DU-145 it was 18.1 µM (inactive); in the experiment on HCT-15, 16.5 µM. The GI50 was 17.5 µM (inactive) in the experiment on HOP-62; 19.3 µM (inactive) in the experiment on Hs-578T; 18.7 µM (inactive) in the experiment on K562; 15.2 µM (inactive) in the experiment with KM12; 17 µM (inactive) in the experiment with M14; 13.1 µM (inactive) with MDA-MB-231. Also, the GI50 in the experiment with MDA-N was 12.7 µM (inactive); with NCI-H460, 20 µM (inactive); with OVCAR-5 it was 16.8 µM (inactive); with SF-268 it was 18.8 µM (inactive); in the experiment on T47D, 18.2 µM (inactive); with TK-10, 16.4 µM (inactive). Moreover, the GI50 in the experiment with UACC-62 is 10.6 µM (inactive).
With `Cc1ccc(S(=O)(=O)n2cc(C#N)c(C#N)c2)cc1`, the GI50 with A498 is 24.7 µM (inactive); with ACHN, 19.3 µM (inactive); in the experiment with CCRF-CEM, 30.2 µM (inactive); with COLO 205, 28.6 µM (inactive); with DU-145 it was 31.4 µM (inactive); in the experiment with HCT-15, 17.9 µM. The GI50 is 24.5 µM (inactive) in the experiment with HOP-62; 24.7 µM (inactive) in the experiment with Hs-578T; 33.3 µM (inactive) with K562; 31 µM (inactive) in the experiment on KM12; 22.4 µM (inactive) in the experiment with M14; 42.6 µM (inactive) in the experiment on MDA-MB-231. The GI50 in the experiment on MDA-N was 27.1 µM (inactive); in the experiment on NCI-H460, 36.5 µM (inactive); in the experiment on OVCAR-5 it was 27.9 µM (inactive); in the experiment on SF-268 it was 26.6 µM (inactive); in the experiment on T47D, 26.4 µM (inactive); in the experiment with TK-10 it was 38.3 µM (inactive). Also, in the experiment with UACC-62, the GI50 is 17.3 µM (inactive).
